{"source": "ChEMBL document CHEMBL6103569", "about": "“Discovery of novel fluorine-containing parthenolide analogues as potential antitumor agents” (Eur J Med Chem, 2025)", "key": {"[1]": {"test": "Acute toxicity in BALB/c mouse assessed as change in body weight at 100 mg/kg, po", "format": "organism-based", "settings": "in vivo"}, "[2]": {"test": "Tmax in male BALB/c mouse at 50 mg/kg, po measured upto 24 hrs by LC-MS/MS analysis", "format": "ADME, organism-based", "settings": "in vivo"}, "[3]": {"test": "AUC (0 to infinity) in male BALB/c mouse at 50 mg/kg, po measured upto 24 hrs by LC-MS/MS analysis", "format": "ADME, organism-based", "settings": "in vivo"}, "[4]": {"test": "AUC (0 to t) in male BALB/c mouse at 10 mg/kg, iv measured upto 24 hrs by LC-MS/MS analysis", "format": "ADME, organism-based", "settings": "in vivo"}, "[5]": {"test": "Clearance in male BALB/c mouse at 10 mg/kg, iv measured upto 24 hrs by LC-MS/MS analysis", "format": "ADME, organism-based", "settings": "in vivo"}, "[6]": {"test": "Volume of distribution in male BALB/c mouse at 10 mg/kg, iv measured upto 24 hrs by LC-MS/MS analysis", "format": "ADME, organism-based", "settings": "in vivo"}, "[7]": {"test": "Acute toxicity in BALB/c mouse assessed as kidney damage at 100 mg/kg, po", "format": "organism-based", "settings": "in vivo"}, "[8]": {"test": "Acute toxicity in BALB/c mouse assessed as liver damage at 100 mg/kg, po", "format": "organism-based", "settings": "in vivo"}, "[9]": {"test": "Acute toxicity in BALB/c mouse assessed as lung damage at 100 mg/kg, po", "format": "organism-based", "settings": "in vivo"}, "PANC-1": {"tested_on": "PANC-1", "test": "Antiproliferative activity against human PANC-1 cells assessed as inhibition of cell growth incubated for 72 hrs by MTT assay", "format": "functional, cell-based", "settings": "panc-1"}, "[10]": {"test": "Initial plasma concentration in male BALB/c mouse at 10 mg/kg, iv measured upto 24 hrs by LC-MS/MS analysis", "format": "ADME, organism-based"}, "[11]": {"test": "Antiproliferative activity against human NCI-H820 cells assessed as inhibition of cell growth incubated for 72 hrs by MTT assay", "format": "functional, cell-based", "settings": "nci-h820"}, "[12]": {"test": "AUC (0 to t) in male BALB/c mouse at 50 mg/kg, po measured upto 24 hrs by LC-MS/MS analysis", "format": "ADME, organism-based", "settings": "in vivo"}, "[13]": {"test": "Half life in male BALB/c mouse at 50 mg/kg, po measured upto 24 hrs by LC-MS/MS analysis", "format": "ADME, organism-based", "settings": "in vivo"}, "[14]": {"test": "Cmax in male BALB/c mouse at 50 mg/kg, po measured upto 24 hrs by LC-MS/MS analysis", "format": "ADME, organism-based", "settings": "in vivo"}, "[15]": {"test": "MRT (0 to t) in male BALB/c mouse at 50 mg/kg, po measured upto 24 hrs by LC-MS/MS analysis", "format": "ADME, organism-based", "settings": "in vivo"}, "[16]": {"test": "Half life in male BALB/c mouse at 10 mg/kg, iv measured upto 24 hrs by LC-MS/MS analysis", "format": "ADME, organism-based", "settings": "in vivo"}, "[17]": {"test": "MRT (0 to t) in male BALB/c mouse at 10 mg/kg, iv measured upto 24 hrs by LC-MS/MS analysis", "format": "ADME, organism-based", "settings": "in vivo"}, "[18]": {"test": "Acute toxicity in BALB/c mouse assessed as spleen damage at 100 mg/kg, po", "format": "organism-based", "settings": "in vivo"}, "Huh-7": {"tested_on": "Huh-7", "test": "Antiproliferative activity against human Huh-7 cells assessed as inhibition of cell growth incubated for 72 hrs by MTT assay", "format": "functional, cell-based", "settings": "huh-7"}, "[19]": {"test": "Acute toxicity in BALB/c mouse assessed as brain damage at 100 mg/kg, po", "format": "organism-based", "settings": "in vivo"}, "[20]": {"test": "Acute toxicity in BALB/c mouse assessed as heart damage at 100 mg/kg, po", "format": "organism-based", "settings": "in vivo"}, "[21]": {"test": "AUC (0 to infinity) in male BALB/c mouse at 10 mg/kg, iv measured upto 24 hrs by LC-MS/MS analysis", "format": "ADME, organism-based", "settings": "in vivo"}, "[22]": {"test": "Prodrug conversion of the compound in HEPES buffer assessed as (1aR,7aS,10aS,10bS)-1a-methyl-8-methylene-5-(2,2,2-trifluoroethyl)-2,3,6,7,7a,8,10a,10b-octahydrooxireno[2',3':9,10]cyclodeca[1,2-b]furan-9(1aH)-one formation by measuring half life at pH 7.4 by RP-HPLC analysis", "format": "ADME"}, "[23]": {"test": "Oral bioavailability in male BALB/c mouse at 50 mg/kg measured upto 24 hrs by LC-MS/MS analysis", "format": "ADME, organism-based", "settings": "in vivo"}}, "data": [{"compound": "CN(C)CC1C(=O)O[C@H]2[C@H]1CC/C(CC(F)(F)F)=C\\CC[C@@]1(C)O[C@@H]21.O=C(O)/C=C/C(=O)O", "note": "(stereo not given in full)", "values": [{"measurement": "Activity", "setting": "[1]", "value": "Non-toxic"}, {"measurement": "Tmax", "setting": "[2]", "value": 15, "unit": "min"}, {"measurement": "AUC(0-inf)", "setting": "[3]", "value": 991, "unit": "ng·h/mL"}, {"measurement": "AUC(0-t) at 24 h", "setting": "[4]", "value": 438, "unit": "ng·h/mL"}, {"measurement": "clearance", "setting": "[5]", "value": 253, "unit": "mL/min/kg"}, {"measurement": "Vd", "setting": "[6]", "value": 12.1, "unit": "L/kg"}, {"measurement": "Activity", "setting": "[7]", "value": "Non-toxic"}, {"measurement": "Activity", "setting": "[8]", "value": "Non-toxic"}, {"measurement": "Activity", "setting": "[9]", "value": "Non-toxic"}, {"measurement": "IC50", "setting": "PANC-1", "value": 4.16, "unit": "µM"}, {"measurement": "C0 at 24 h", "setting": "[10]", "value": 1450, "unit": "ng/mL"}, {"measurement": "IC50", "setting": "[11]", "value": 4.18, "unit": "µM"}, {"measurement": "AUC(0-t) at 24 h", "setting": "[12]", "value": 991, "unit": "ng·h/mL"}, {"measurement": "half-life", "setting": "[13]", "value": 47.9, "unit": "min"}, {"measurement": "Cmax", "setting": "[14]", "value": 1080, "unit": "ng/mL"}, {"measurement": "MRT last at 24 h", "setting": "[15]", "value": 49.7, "unit": "min"}, {"measurement": "half-life", "setting": "[16]", "value": 33.2, "unit": "min"}, {"measurement": "MRT last at 24 h", "setting": "[17]", "value": 24.1, "unit": "min"}, {"measurement": "Activity", "setting": "[18]", "value": "Non-toxic"}, {"measurement": "IC50", "setting": "Huh-7", "value": 3.41, "unit": "µM"}, {"measurement": "Activity", "setting": "[19]", "value": "Non-toxic"}, {"measurement": "Activity", "setting": "[20]", "value": "Non-toxic"}, {"measurement": "AUC(0-inf)", "setting": "[21]", "value": 444, "unit": "ng·h/mL"}, {"measurement": "t1/2", "setting": "[22]", "value": 76.8, "unit": "min"}, {"measurement": "bioavailability", "setting": "[23]", "value": 45.2, "unit": "%"}]}]}
